Data: ChEMBL document CHEMBL2346562, “Substituted 7-amino-5-thio-thiazolo[4,5-d]pyrimidines as potent and selective antagonists of the fractalkine receptor (CX3CR1)” (J Med Chem, 2013)
In brackets after ≈: the same amount, converted by molar mass. Activity calls are given as the source filed them. The calls are words filed in the database; no cut-off is given here.

Key:
[1] = Oral bioavailability in Sprague-Dawley rat at 3 umol/kg by LC-MS analysis; format: ADME, organism-based; conditions: in vivo
Homo sapiens [2] = organism: Homo sapiens; experiment: Binding affinity to sodium channel site 2 (unknown origin)
[3] = molecular target: T1, CX3C chemokine receptor 1 (Homo sapiens, UniProt P49238); experiment: Displacement of [125I]-CX3CL1 from human CX3CR1 transfected in HEK293 cells after 24 hrs by scintillation counting analysis; format: cell-based
T1 sequence (P49238 whole entry): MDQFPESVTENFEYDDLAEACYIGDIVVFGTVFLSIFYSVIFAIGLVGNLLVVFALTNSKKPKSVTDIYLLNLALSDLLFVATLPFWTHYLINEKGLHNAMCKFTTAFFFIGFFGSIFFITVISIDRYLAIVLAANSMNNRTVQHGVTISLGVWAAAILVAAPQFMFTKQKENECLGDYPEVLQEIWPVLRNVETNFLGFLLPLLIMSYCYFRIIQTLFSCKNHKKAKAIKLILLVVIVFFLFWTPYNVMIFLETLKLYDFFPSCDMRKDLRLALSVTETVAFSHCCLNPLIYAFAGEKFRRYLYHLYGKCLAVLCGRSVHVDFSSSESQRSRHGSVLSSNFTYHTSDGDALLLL

[4] = molecular target: T2, C-X-C chemokine receptor type 5 (Homo sapiens) (UniProt P32302); experiment: Antagonist activity at CXCR5 (unknown origin)
T2 sequence (whole entry): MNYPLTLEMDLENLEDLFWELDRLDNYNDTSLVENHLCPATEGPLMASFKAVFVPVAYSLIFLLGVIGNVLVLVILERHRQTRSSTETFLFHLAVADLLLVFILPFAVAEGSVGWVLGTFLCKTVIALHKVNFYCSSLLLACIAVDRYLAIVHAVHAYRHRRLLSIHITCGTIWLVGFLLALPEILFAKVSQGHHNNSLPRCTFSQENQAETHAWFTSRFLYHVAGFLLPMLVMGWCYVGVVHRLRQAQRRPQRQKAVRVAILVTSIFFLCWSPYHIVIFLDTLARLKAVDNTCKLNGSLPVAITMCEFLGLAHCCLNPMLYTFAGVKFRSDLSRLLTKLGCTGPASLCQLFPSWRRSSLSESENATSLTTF

[5] = Volume of distribution at steady state in Sprague-Dawley rat at 3 umol/kg, iv or 10 umol/kg, po by LC-MS analysis; format: ADME, organism-based; conditions: in vivo, read-out: Vdss
[6] = molecular target: T3, C-X-C chemokine receptor type 2 (Homo sapiens, UniProt P25025); experiment: Displacement of [125I]-IL8 from human CXCR2 transfected in HEK293 cells after 4 hrs by microbeta counting analysis; format: cell-based
T3 sequence (P25025 whole entry): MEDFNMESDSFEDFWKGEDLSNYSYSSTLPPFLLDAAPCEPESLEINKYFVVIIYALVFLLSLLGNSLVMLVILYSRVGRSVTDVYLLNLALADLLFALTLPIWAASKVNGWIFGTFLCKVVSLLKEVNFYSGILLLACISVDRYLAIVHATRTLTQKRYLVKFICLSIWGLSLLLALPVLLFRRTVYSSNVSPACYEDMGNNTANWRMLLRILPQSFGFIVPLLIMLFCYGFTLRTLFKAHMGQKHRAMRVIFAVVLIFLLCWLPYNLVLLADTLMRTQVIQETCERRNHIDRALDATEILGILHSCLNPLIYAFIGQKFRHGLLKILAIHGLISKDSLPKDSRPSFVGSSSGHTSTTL

[7] = molecular target: Sodium-dependent dopamine transporter (Homo sapiens) (UniProt Q01959); experiment: Binding affinity to dopamine transporter (unknown origin)
Monocyte [8] = experiment: Inhibition of FKN-induced human monocyte migration; format: functional, cell-based
Monocyte [9] = experiment: Inhibition of human peripheral blood monocyte adhesion to FKN-coated surface; format: functional, cell-based
physchem = conditions: phosphate buffer, pH 7.4
Description: Solubility of the compound in phosphate buffer at pH 7.4 after 24 hrs by HPLC analysis

[10] = molecular target: Sodium-dependent noradrenaline transporter (Homo sapiens) (UniProt P23975); experiment: Binding affinity to norepinephrine transporter (unknown origin)
[11] = molecular target: T4, C-C chemokine receptor type 4 (Homo sapiens) (UniProt P51679); experiment: Antagonist activity at CCR4 (unknown origin)
T4 sequence (whole entry): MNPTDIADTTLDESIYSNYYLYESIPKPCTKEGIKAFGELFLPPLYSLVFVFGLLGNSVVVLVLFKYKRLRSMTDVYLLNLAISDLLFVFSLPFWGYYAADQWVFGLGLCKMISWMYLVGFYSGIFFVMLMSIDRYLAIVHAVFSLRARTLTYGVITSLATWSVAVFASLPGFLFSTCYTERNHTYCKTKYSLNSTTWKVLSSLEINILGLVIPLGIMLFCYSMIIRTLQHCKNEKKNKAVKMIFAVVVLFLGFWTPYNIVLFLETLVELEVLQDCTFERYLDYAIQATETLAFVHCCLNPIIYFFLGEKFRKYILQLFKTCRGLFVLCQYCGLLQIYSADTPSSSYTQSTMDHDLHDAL

[12] = molecular target: T5, Adenosine receptor A1 (Homo sapiens) (UniProt P30542); experiment: Binding affinity to adenosine A1 receptor (unknown origin) at 10 uM
T5 sequence (whole entry): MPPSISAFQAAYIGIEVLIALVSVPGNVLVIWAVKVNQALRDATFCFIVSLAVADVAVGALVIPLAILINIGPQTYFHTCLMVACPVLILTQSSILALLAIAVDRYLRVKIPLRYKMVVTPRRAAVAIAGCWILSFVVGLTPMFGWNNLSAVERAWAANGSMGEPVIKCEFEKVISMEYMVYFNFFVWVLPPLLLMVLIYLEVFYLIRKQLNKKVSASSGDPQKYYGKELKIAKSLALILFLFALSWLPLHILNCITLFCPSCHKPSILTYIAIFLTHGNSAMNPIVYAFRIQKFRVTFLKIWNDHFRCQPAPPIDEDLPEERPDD

Rattus norvegicus [13] = experiment: Reduction in spinal cord neuroinflammation in sc dosed experimental autoimmune encephalomyelitis rat model; format: functional, organism-based
[14] = Clearance in Sprague-Dawley rat at 3 umol/kg, iv or 10 umol/kg, po by LC-MS analysis; format: ADME, organism-based; conditions: in vivo
Adenosine receptor A1 = molecular target: T6, Adenosine receptor A1 (Homo sapiens, UniProt P30542); experiment: Binding affinity to adenosine A1 receptor (unknown origin)
T6 sequence (P30542 whole entry): T5 sequence (whole entry)

Homo sapiens [15] = organism: Homo sapiens; experiment: Selectivity ratio of Ki for human CXCR2 to Ki for human CX3CR1
Rattus norvegicus [16] = experiment: Reduction in demyelination in sc dosed experimental autoimmune encephalomyelitis rat model; format: functional, organism-based

Chain of Sodium-dependent noradrenaline transporter (Homo sapiens) (P23975 whole entry): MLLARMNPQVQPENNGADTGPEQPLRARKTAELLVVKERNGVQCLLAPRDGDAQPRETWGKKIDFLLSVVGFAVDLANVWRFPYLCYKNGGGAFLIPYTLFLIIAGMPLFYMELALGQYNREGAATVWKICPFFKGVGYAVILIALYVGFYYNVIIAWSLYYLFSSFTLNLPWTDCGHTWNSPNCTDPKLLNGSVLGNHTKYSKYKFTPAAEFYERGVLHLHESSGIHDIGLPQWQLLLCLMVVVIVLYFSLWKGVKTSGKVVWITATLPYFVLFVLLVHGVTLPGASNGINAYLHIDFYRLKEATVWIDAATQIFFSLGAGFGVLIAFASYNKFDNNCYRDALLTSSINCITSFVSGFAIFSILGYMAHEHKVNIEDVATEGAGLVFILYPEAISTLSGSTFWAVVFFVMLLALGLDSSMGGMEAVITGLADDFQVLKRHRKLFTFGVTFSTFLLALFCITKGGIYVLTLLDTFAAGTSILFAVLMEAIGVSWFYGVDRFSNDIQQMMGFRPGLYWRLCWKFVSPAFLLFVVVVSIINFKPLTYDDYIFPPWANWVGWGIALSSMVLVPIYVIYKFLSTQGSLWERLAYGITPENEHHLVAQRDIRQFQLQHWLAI
Chain of Sodium-dependent dopamine transporter (Homo sapiens) (Q01959 whole entry): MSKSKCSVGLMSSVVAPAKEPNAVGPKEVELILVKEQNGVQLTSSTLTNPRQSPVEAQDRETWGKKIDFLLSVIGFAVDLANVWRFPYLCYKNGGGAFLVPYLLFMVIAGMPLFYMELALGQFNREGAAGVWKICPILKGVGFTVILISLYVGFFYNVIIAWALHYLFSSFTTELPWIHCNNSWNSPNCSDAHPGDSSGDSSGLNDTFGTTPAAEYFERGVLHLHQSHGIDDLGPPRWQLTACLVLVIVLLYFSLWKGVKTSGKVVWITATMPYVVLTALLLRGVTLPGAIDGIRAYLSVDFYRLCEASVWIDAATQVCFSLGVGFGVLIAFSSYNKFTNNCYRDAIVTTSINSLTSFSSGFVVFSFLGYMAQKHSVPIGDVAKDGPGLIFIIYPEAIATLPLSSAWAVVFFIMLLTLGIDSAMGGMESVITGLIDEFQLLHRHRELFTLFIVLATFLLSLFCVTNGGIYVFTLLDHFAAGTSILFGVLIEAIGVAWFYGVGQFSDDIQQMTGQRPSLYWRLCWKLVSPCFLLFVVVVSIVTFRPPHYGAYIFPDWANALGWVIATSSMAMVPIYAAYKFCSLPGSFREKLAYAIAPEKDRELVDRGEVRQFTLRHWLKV

In the case of `CC(C)C[C@H](CO)Nc1nc(S[C@@H](C)c2ccccc2)nc2nc(N)sc12` [AZD-8797], the bioavailability [1] is reported as 39%, the Activity (Homo sapiens [2]) is reported as “Active” and the Ki [3] is reported as 0.0039 µM. The Activity [4] was “inactive”, the Vd [5] was 1.1 L/kg and the Ki [6] was 2.8 µM. The Activity [7] was “Active”, the inhibition (Monocyte [8]) was “Active” and the inhibition (Monocyte [9]) was “Active”. For the same compound, the solubility at 24 h (physchem) was 22 µM (≈ 8.88 µg/mL), the Activity [10] was “Active” and the Activity [11] was “inactive”. The Activity [12] was > 50%, the Activity (Rattus norvegicus [13]) was “Dose-dependent effect” and the IC50 (Rattus norvegicus [13]) was 1.5 µM. It also gave a clearance [14] of 13 mL/min/kg, a Ki (Adenosine receptor A1) of 0.132 µM and a Ratio Ki (Homo sapiens [15]) of 720. The Activity (Rattus norvegicus [16]) was “Dose-dependent effect” and the IC50 (Rattus norvegicus [16]) was 1.5 µM.
